Where two headings read alike, the source gives them in different places. *1 amine or outer side, *2 acyl side, *3 side chain or, on linkers, in order; H or OH if unused. Where a SMILES comes first, the peptide text is derived from it. Side-chain parts run from the residue outwards. [ ]: non-standard residue; d: D form. The star is where a group is joined. Undecanoyl(11-OPh(4-COOH)) = O=C(O)c1ccc(OCCCCCCCCCCC(=O)*)cc1; Decanoyl(10-(4-HOOC-PhO)) = O=C(O)c1ccc(OCCCCCCCCCC(=O)*)cc1; αMePhe(2-F) = C[C@](N)(Cc1ccccc1F)C(=O)O; γGlu = O=C(O)[C@H](CCC(=O)[*:2])N[*:1]; αMeY = C[C@](N)(Cc1ccc(O)cc1)C(=O)O; 4Pal = N[C@@H](Cc1ccncc1)C(=O)O; αMeL = CC(C)C[C@](C)(N)C(=O)O; Orn = NCCC[C@H](N)C(=O)O; AEEA = NCCOCCOCC(=O)O; Aib = CC(C)(N)C(=O)O
How the values were obtained:
Type in all cases: cell-based
hGIPR = molecular target: T1, hGIPR (Homo sapiens, UniProt P48546); assay: Functional cAMP formation (HTRF) in HEK-293 clonal cells expressing hGIPR, 0.1% bovine casein, without or with 1.0% human serum albumin; conditions: for EC50: hGIPR EC50, nM (SEM, n), geometric mean
T1 construct: expressed in transfected cells
T1 sequence (P48546 22-466): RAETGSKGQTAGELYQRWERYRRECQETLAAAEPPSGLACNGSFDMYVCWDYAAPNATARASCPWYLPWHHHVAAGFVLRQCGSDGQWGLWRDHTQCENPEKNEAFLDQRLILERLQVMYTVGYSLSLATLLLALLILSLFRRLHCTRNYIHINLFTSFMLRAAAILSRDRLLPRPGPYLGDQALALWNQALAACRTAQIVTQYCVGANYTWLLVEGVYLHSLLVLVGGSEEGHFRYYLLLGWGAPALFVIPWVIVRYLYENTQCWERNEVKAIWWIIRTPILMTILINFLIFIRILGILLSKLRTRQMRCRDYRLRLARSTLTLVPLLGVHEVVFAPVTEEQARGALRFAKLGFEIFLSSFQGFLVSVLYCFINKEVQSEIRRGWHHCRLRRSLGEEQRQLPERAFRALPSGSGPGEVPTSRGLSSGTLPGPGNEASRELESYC
Summary of the method: (§1)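 Readings of the HTRF 665/620 nm ratio, which falls as cAMP rises, were converted to nM cAMP using a standard curve after 30 min peptide exposure at 37° C.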

hGCGR = molecular target: T2, hGCGR (Homo sapiens, UniProt P47871); assay: Functional cAMP formation (HTRF) in HEK-293 clonal cells expressing hGCGR, 0.1% bovine casein, without or with 1.0% human serum albumin; conditions: hGCGR EC50, nM (SEM, n), geometric mean
T2 construct: expressed in transfected cells
Summary of the method: as §1

hGLP-1R = hGLP-1R (Homo sapiens, UniProt P43220); assay: Functional cAMP formation (HTRF) in HEK-293 clonal cells expressing hGLP-1R, 0.1% bovine casein, without or with 1.0% human serum albumin; set-up: expressed in transfected cells; conditions: for EC50: hGLP-1R EC50, nM (SEM, n), geometric mean
Summary of the method: as §1

[1] = HEK293, read-out: hGIPR Emax, % ± SEM, 0.1% bovine casein and 1.0% human serum albumin, 37° C., percent of maximal response to GIP(1-42)NH2
[2] = cAMP, incubated at 37° C., 0.1% bovine casein (no human serum albumin)
[3] = 0.1% bovine casein and 1.0% human serum albumin, 37° C.
[4] = HEK293, read-out: hGLP-1R Emax, % ± SEM, percent of maximal response to GLP-1(7-36)NH2, 37° C., 0.1% bovine casein, arithmetic mean
[5] = HEK293, read-out: hGIPR Emax, % ± SEM, percent of maximal response to GIP(1-42)NH2, 37° C., 0.1% bovine casein, arithmetic mean
[6] = HEK293, read-out: hGLP-1R Emax, % ± SEM, 0.1% bovine casein and 1.0% human serum albumin, 37° C., percent of maximal response to GLP-1(7-36)NH2

T2 sequence (P47871 26-477): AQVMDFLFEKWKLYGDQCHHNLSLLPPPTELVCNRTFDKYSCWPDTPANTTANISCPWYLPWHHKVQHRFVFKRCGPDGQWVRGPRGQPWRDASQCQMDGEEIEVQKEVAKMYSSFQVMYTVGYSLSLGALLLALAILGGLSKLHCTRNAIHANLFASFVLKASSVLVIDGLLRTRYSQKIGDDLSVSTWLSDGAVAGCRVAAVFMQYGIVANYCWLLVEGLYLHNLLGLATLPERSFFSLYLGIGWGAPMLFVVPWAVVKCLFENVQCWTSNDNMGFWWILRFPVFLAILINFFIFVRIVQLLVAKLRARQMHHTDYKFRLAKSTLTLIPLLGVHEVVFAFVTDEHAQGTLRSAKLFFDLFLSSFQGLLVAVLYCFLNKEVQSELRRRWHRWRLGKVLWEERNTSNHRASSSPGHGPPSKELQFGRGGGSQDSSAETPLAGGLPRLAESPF
Sequence of hGLP-1R (P43220 24-463): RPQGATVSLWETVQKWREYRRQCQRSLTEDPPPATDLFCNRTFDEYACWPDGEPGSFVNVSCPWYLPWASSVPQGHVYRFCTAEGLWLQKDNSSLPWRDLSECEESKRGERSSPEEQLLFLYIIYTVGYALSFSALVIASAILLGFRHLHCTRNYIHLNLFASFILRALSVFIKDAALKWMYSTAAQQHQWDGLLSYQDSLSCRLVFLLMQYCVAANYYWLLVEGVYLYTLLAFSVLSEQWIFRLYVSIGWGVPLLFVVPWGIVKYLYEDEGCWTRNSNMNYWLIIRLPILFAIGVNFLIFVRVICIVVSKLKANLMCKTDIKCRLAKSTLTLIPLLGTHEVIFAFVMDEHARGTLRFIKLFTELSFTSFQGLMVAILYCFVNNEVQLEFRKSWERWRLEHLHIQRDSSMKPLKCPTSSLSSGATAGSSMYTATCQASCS

SMILES | Emax (hGIPR; [1]) | EC50 (hGIPR; [2]) | EC50 (hGCGR; [3]) | EC50 (hGCGR; [2]) | Emax (hGLP-1R; [4]) | EC50 (hGLP-1R; [3]) | EC50 (hGLP-1R; [2]) | Emax (hGIPR; [5]) | Emax (hGLP-1R; [6]) | EC50 (hGIPR; [3])
CC[C@H](C)[C@H](NC(=O)[C@H](CCCN)NC(=O)[C@H](CC(=O)O)NC(=O)[C@H](CC(C)C)NC(=O)[C@](C)(CC(C)C)NC(=O)[C@@H](NC(=O)C(C)(C)NC(=O)[C@H](Cc1ccc(O)cc1)NC(=O)[C@H](CC(=O)O)NC(=O)[C@H](CO)NC(=O)[C@@H](NC(=O)[C@](C)(Cc1ccccc1F)NC(=O)[C@@H](NC(=O)CNC(=O)[C@H](CCC(=O)O)NC(=O)C(C)(C)NC(=O)[C@@H](N)Cc1ccc(O)cc1)[C@@H](C)O)[C@@H](C)O)[C@@H](C)CC)C(=O)N[C@@H](C)C(=O)N[C@@H](CCC(N)=O)C(=O)NC(C)(C)C(=O)N[C@@H](CCCCNC(=O)COCCOCCNC(=O)COCCOCCNC(=O)CC[C@H](NC(=O)CCCCCCCCCOc1ccc(C(=O)O)cc1)C(=O)O)C(=O)N[C@@H](Cc1ccccc1)C(=O)N[C@H](C(=O)N[C@H](CCC(=O)O)C(=O)N[C@@](C)(Cc1ccc(O)cc1)C(=O)N[C@@H](CC(C)C)C(=O)N[C@H](C(=O)N[C@@H](CCCCNC(=O)COCCOCCNC(=O)COCCOCCNC(=O)CC[C@H](NC(=O)CCCCCCCCCOc1ccc(C(=O)O)cc1)C(=O)O)C(=O)NCC(=O)NCC(=O)N1CCC[C@H]1C(=O)N[C@@H](CO)C(=O)N[C@@H](CO)C(=O)NCC(=O)N[C@@H](C)C(=O)N1CCC[C@H]1C(=O)N1CCC[C@H]1C(=O)N1CCC[C@H]1C(=O)N[C@@H](CO)C(N)=O)[C@@H](C)CC)[C@@H](C)CC [Example 240] (H-Y[Aib]EGT[αMePhe(2-F)]TSDY[Aib]I[αMeL]LD[Orn]IAQ[Aib]K([AEEA-AEEA-γGlu-Decanoyl(10-(4-HOOC-PhO))])FI[dE][αMeY]LIK([AEEA-AEEA-γGlu-Decanoyl(10-(4-HOOC-PhO))])GGPSSGAPPPS-NH2) | 87.2% | 0.0237 nM | > 9950 nM | > 9950 nM | 98.5% | 150 nM | 0.508 nM | – | – | –
CC[C@H](C)[C@H](NC(=O)[C@H](CCCN)NC(=O)[C@H](CC(=O)O)NC(=O)[C@H](CC(C)C)NC(=O)[C@](C)(CC(C)C)NC(=O)[C@@H](NC(=O)C(C)(C)NC(=O)[C@H](Cc1ccc(O)cc1)NC(=O)[C@H](CC(=O)O)NC(=O)[C@H](CO)NC(=O)[C@@H](NC(=O)[C@](C)(Cc1ccccc1F)NC(=O)[C@@H](NC(=O)CNC(=O)[C@H](CCC(=O)O)NC(=O)C(C)(C)NC(=O)[C@@H](N)Cc1ccc(O)cc1)[C@@H](C)O)[C@@H](C)O)[C@@H](C)CC)C(=O)N[C@@H](C)C(=O)N[C@@H](CCC(N)=O)C(=O)NC(C)(C)C(=O)N[C@@H](CCCCNC(=O)COCCOCCNC(=O)COCCOCCNC(=O)CC[C@H](NC(=O)CCCCCCCCCOc1ccc(C(=O)O)cc1)C(=O)O)C(=O)N[C@@H](Cc1ccccc1)C(=O)N[C@H](C(=O)N[C@H](CCC(=O)O)C(=O)N[C@@](C)(Cc1ccc(O)cc1)C(=O)N[C@@H](CC(C)C)C(=O)N[C@H](C(=O)N[C@@H](CCC(=O)O)C(=O)NCC(=O)NCC(=O)N1CCC[C@H]1C(=O)N[C@@H](CO)C(=O)N[C@@H](CO)C(=O)NCC(=O)N[C@@H](C)C(=O)N1CCC[C@H]1C(=O)N1CCC[C@H]1C(=O)N1CCC[C@H]1C(=O)N[C@@H](CO)C(=O)N[C@@H](CCCCNC(=O)COCCOCCNC(=O)COCCOCCNC(=O)CC[C@H](NC(=O)CCCCCCCCCOc1ccc(C(=O)O)cc1)C(=O)O)C(N)=O)[C@@H](C)CC)[C@@H](C)CC [Example 241] (H-Y[Aib]EGT[αMePhe(2-F)]TSDY[Aib]I[αMeL]LD[Orn]IAQ[Aib]K([AEEA-AEEA-γGlu-Decanoyl(10-(4-HOOC-PhO))])FI[dE][αMeY]LIEGGPSSGAPPPSK([AEEA-AEEA-γGlu-Decanoyl(10-(4-HOOC-PhO))])-NH2; N-terminus assumed) | 84.9% | 0.0213 nM | > 9950 nM | > 9950 nM | 91% | – | 0.362 nM | 105% | 105% | –
CC[C@H](C)[C@H](NC(=O)[C@H](CCCN)NC(=O)[C@H](CC(=O)O)NC(=O)[C@H](CC(C)C)NC(=O)[C@](C)(CC(C)C)NC(=O)[C@@H](NC(=O)C(C)(C)NC(=O)[C@H](Cc1ccncc1)NC(=O)[C@H](CC(=O)O)NC(=O)[C@H](CO)NC(=O)[C@@H](NC(=O)[C@](C)(Cc1ccccc1F)NC(=O)[C@@H](NC(=O)CNC(=O)[C@H](CCC(=O)O)NC(=O)C(C)(C)NC(=O)[C@@H](N)Cc1ccc(O)cc1)[C@@H](C)O)[C@@H](C)O)[C@@H](C)CC)C(=O)N[C@@H](C)C(=O)N[C@@H](CCC(N)=O)C(=O)NC(C)(C)C(=O)N[C@@H](CCCCNC(=O)COCCOCCNC(=O)COCCOCCNC(=O)CC[C@H](NC(=O)CCCCCCCCCCOc1ccc(C(=O)O)cc1)C(=O)O)C(=O)N[C@@H](Cc1ccccc1)C(=O)N[C@H](C(=O)N[C@H](CCC(=O)O)C(=O)N[C@@](C)(Cc1ccc(O)cc1)C(=O)N[C@@H](CC(C)C)C(=O)N[C@H](C(=O)N[C@@H](CCC(=O)O)C(=O)NCC(=O)NCC(=O)N1CCC[C@H]1C(=O)N[C@@H](CO)C(=O)N[C@@H](CO)C(=O)NCC(=O)N[C@@H](C)C(=O)N1CCC[C@H]1C(=O)N1CCC[C@H]1C(=O)N1CCC[C@H]1C(=O)N[C@@H](CO)C(=O)N[C@@H](CCCCNC(=O)COCCOCCNC(=O)COCCOCCNC(=O)CC[C@H](NC(=O)CCCCCCCCCCOc1ccc(C(=O)O)cc1)C(=O)O)C(N)=O)[C@@H](C)CC)[C@@H](C)CC [Example 242] (H-Y[Aib]EGT[αMePhe(2-F)]TSD[4Pal][Aib]I[αMeL]LD[Orn]IAQ[Aib]K([AEEA-AEEA-γGlu-Undecanoyl(11-OPh(4-COOH))])FI[dE][αMeY]LIEGGPSSGAPPPSK([AEEA-AEEA-γGlu-Undecanoyl(11-OPh(4-COOH))])-NH2) | 83.9% | 0.0197 nM | > 9950 nM | > 9950 nM | 96.3% | – | 0.584 nM | 100% | – | –
CC[C@H](C)[C@H](NC(=O)[C@H](CC(C)C)NC(=O)[C@](C)(Cc1ccc(O)cc1)NC(=O)[C@@H](CCC(=O)O)NC(=O)[C@@H](NC(=O)[C@H](Cc1ccccc1)NC(=O)[C@H](CCCCNC(=O)COCCOCCNC(=O)COCCOCCNC(=O)CC[C@H](NC(=O)CCCCCCCCCOc1ccc(C(=O)O)cc1)C(=O)O)NC(=O)C(C)(C)NC(=O)[C@H](CCC(N)=O)NC(=O)[C@H](C)NC(=O)[C@H](CCCCNC(=O)COCCOCCNC(=O)COCCOCCNC(=O)CC[C@H](NC(=O)CCCCCCCCCOc1ccc(C(=O)O)cc1)C(=O)O)NC(=O)[C@H](CCCN)NC(=O)[C@H](CC(=O)O)NC(=O)[C@H](CC(C)C)NC(=O)[C@](C)(CC(C)C)NC(=O)[C@@H](NC(=O)C(C)(C)NC(=O)[C@H](Cc1ccncc1)NC(=O)[C@H](CC(=O)O)NC(=O)[C@H](CO)NC(=O)[C@@H](NC(=O)[C@](C)(Cc1ccccc1F)NC(=O)[C@@H](NC(=O)CNC(=O)[C@H](CCC(=O)O)NC(=O)C(C)(C)NC(=O)[C@@H](N)Cc1ccc(O)cc1)[C@@H](C)O)[C@@H](C)O)[C@@H](C)CC)[C@@H](C)CC)C(=O)N[C@@H](CCC(=O)O)C(=O)NCC(=O)NCC(=O)N1CCC[C@H]1C(=O)N[C@@H](CO)C(=O)N[C@@H](CO)C(=O)NCC(=O)N[C@@H](C)C(=O)N1CCC[C@H]1C(=O)N1CCC[C@H]1C(=O)N1CCC[C@H]1C(=O)N[C@@H](CO)C(N)=O [Example 243] | 90.5% | 0.0154 nM | > 9950 nM | > 9950 nM | 93.2% | – | 0.86 nM | – | 114% | 0.728 nM

Source: US20230265151A1, “GIP/GLP1 CO-AGONIST COMPOUNDS” (priority 2020, published 2023)
